Assay results: patent US20100297256A1, “METHODS AND COMPOSITIONS FOR INHIBITING INTEGRINS USING TELLURIUM-CONTAINING COMPOUNDS” (priority 2007, published 2010)

Tests used:
SVEC4-10 cells [1] = experiment: Boyden chamber migration assay; assay type: cell-based, murine; details: 6 hours
Procedure: Migration assay was performed in a 48-well microchemotaxis chamber. Polyester membranes with 8 μm pores were coated with 0.1 mg/ml of collagen I in DMEM and then dried for 1 hour. B16F10 and Svec4-10 cells were harvested using TE and resuspended in DMEM containing 0.1% BSA. The bottom chamber was loaded with Svec4-10 supernatant/DMEM (1:5) containing varying concentration of AS101 or SAS and the filter was laid over the treatment solutions. Non-diluted Svec4-10 supernatant was used as a positive control. The upper wells were then loaded with 30,000 cells, the chamber was incubated at 37° C. for 6 hours and the filters were fixed and stained using Diff-Quick. The cells that migrated through the filter were quantified by counting the center of each well in a 36-box grid at ×20 using an Olympic CK2 microscope. Each condition was studied in triplicate wells, and each experiment was performed three times.

SVEC4-10 cells [2] = experiment: "Scratch" wound closure assay; assay type: cell-based, murine; details: 1 μg/ml, ECGS 100 μg/ml, cells counted at 12 hours
Procedure: Confluent Svec4-10 monolayers in 6 mm plates were “scratch” wounded using the tip of a universal blue pipette tip and rinsed with PBS. AS101 or SAS (1 μg/ml final concentration) or ECGS (100 μg/ml) were added to the plates containing serum-free DMEM. The plates were incubated at 37° C. and fixed and stained at several time points. Migrated cells at 12 hours were counted along the scratch. The centers of plates at all times were photographed for presented data. The experiment was repeated three times.

BV-2 cells = experiment: Cell attachment assay, BV-2; assay type: cell-based, murine
West Nile Virus (WNV) [3] = experiment: West Nile Virus (WNV) cytopathic effect assay; assay type: cell-based; details: Vero cells
Procedure: Attached cells were washed with PBS without Ca^+2/Mg^+2. 100 μl of 0.2% crystal violet in 20% methanol was thereafter added and the cells were incubated for 10 minutes at room temperature. At the end of incubation time, cells were washed twice with double-distilled water and 100 μl of 10% SDS was added. Dye bound to the cell is released by SDS and the absorption by the dye is measured by colorimetry at 570 nm. The amount of stained cells is then considered to be proportional to the measured absorption by the dye
Vero cells were seeded at the density of 2×10^4 cells/well in 96-well plates, 20 hours before infection. The cells were treated with PBS or with various concentrations of AS101 before (1 hour or 5-10 minutes), or after (1 hour or 24 hours) virus inoculation. WNV at MOI (multiplicity of infection) of 0.005 PFU (plaque forming units) per cell was added to the cells and allowed undergo absorption for 1 hour at 37° C. The medium was removed and the cells were washed twice with PBS and overlaid with fresh medium. Cells were then incubated at 37° C. with 5% CO2 for 3-5 days. The development of a cytopathic effect was monitored by light microscopy.

West Nile Virus (WNV) [4] = experiment: WNV plaque assay; assay type: cell-based; details: Vero cells, added 1 hour before inoculation
Procedure: Vero cells were seeded at a density of 1×10^6 cells in 10 cm dishes 20 hours prior to infection. WNV (5×10^3 PFU/ml, MOI=0.005 PFU/cell) was added to the cultures, and the plates were incubated for 1 hour at 37° C. with 5% CO2. After incubation, the medium was removed and the cells were washed 6 times with PBS and overlaid with fresh EMEM medium containing 4% FCS (fetal calf serum) and 1% (w/v) agar. Cells were then incubated at 37° C. with 5% CO2 for 3 days until plaques appeared, and then fixed and stained with a solution of 0.5% crystal violet in a mixture of formalin (1% v/v) and ethanol (1.65% v/v). Plaques were counted over a light box after removal of the agar overlay.

West Nile Virus (WNV) [5] = experiment: WNV yield assay; assay type: cell-based; details: Vero cells, 5 μg/ml 1 hour before inoculation
Procedure: Vero cells were seeded as described above in 96-well plates. Cells were treated with AS101 and infected with WNV at MOI of 5 PFU/cell. The cells were washed six times with PBS, and fresh medium was added. The virus titer in harvested culture supernatants was determined by a microtitration assay as follows [Colley et al., in Colgan et al., Current Protocols in Immunology, John Wiley & Sons, New York, N.Y., 2003]: 10-fold serial dilutions of supernatants were used to infect Vero cells in 96-well plates. […] Viral titers (expressed as log 10 of TCID50/ml) were calculated according to the Spearman-Karber method [Hierholzer and Killington, in Mahy and Kangro, Virology Methods Manual, Academic Press, San Diego, Calif., 1996].

U937 cells = experiment: Fluorescence-based flow cytometry analysis of cell death; design: species or system human
Excerpt: Fluorescence-based flow cytometry was used to measure the effect of tellurium-containing compounds on chemotherapy-induced cell death. Accumulation of cells in the sub-G1 fraction, increased proportion of annexin V-positive and propidium iodide-positive cells and increased caspase activity were each used as indicators of increased cell death, using standard procedures.

[6] = test system: leukemic cells from AML patients; experiment: Sensitization of leukemic cells from AML patients to chemotherapy; assay type: cell-based, human
Procedure: 2×10^4 per 200 μl cells were seeded in 96-microwell flat bottom plates. After 24 hours, the tested compound(s) (e.g., AS101, ARA-C, DTNB, anti-VLA-4 antibody) was added, and the cells were incubated overnight with the tested compound(s). The XTT solution was then added and the cells were incubated for 4 hours at 37° C. Cell viability was than evaluated by measuring absorbance at 450 nm using a Microplate Spectrophotometer (Spectra MAX Plus, Molecular Devices).
Bone marrow samples from patients diagnosed, with AML, but not yet treated, were obtained and grown in vitro. The leukemic cells obtained therefrom were tested for levels of VLA-4 and VLA-5 via fluorescence based cytometry, using FITC (fluorescein isothiocyanate)-conjugated anti-VLA-4 and anti-VLA-5 antibodies, using standard procedures. The cells were grown on both fibronectin and BSA, and the effect of AS101 on chemotherapy resistance was measured.

[7] = U937 on BSA, AS101 combined with ARA-C
[8] = U937 on fibronectin, AS101 combined with ARA-C
[9] = U937 on fibronectin, agent alone

Cl[TeH]1(Cl)(Cl)OCCO1 [AS101, ammonium trichloro(dioxyethylene-O,O′)tellurate]
directional migration of murine endothelial cells through the membrane (SVEC4-10 cells [1]): inhibited the directional migration | ECGS-induced scratch wound repair by cell migration (SVEC4-10 cells [2]): reduce ECGS-induced scratch wound repair | cell attachment to fibronectin (BV-2 cells): inhibited cell attachment to fibronectin | WNV cytopathic effect (West Nile Virus (WNV) [3]; 2.5 μg/ml added 5-10 minutes before inoculation): no cytopathic effect is observed | viability of WNV-infected cells (crystal violet) (West Nile Virus (WNV) [3]; 72 hours after infection): dose-dependent protective effect | WNV cytopathic effect (West Nile Virus (WNV) [3]; added 1 hour or 24 hours after inoculation, data not shown): did not exhibit such an inhibitory effect | WNV-induced plaque formation (West Nile Virus (WNV) [4]): dose-dependent protective effect against the plaque formation | decrease in virus yield (West Nile Virus (WNV) [5]; 24 hours post-infection): 1 log | decrease in virus yield (West Nile Virus (WNV) [5]; 36 hours post-infection): 2 log | caspase-3 activity, ARA-C and AS101 in combination vs ARA-C alone (U937 cells; U937 on BSA): the same degrees of caspase-3 activity | percentage of annexin V-positive and propidium iodide-positive cells (U937 cells; [7]): only slightly above the percentage obtained with ARA-C alone | percentage of cells in the sub-G1 fraction (U937 cells; [7]): did not provide significantly different results than ARA-C alone | percentage of annexin V-positive and propidium iodide-positive cells (U937 cells; [8]): increased the percentage of annexin V-positive and propidium iodide-positive cells considerably | percentage of cells in the sub-G1 fraction (U937 cells; [8]): over 80% | percentage of cells with high caspase-3 activity (U937 cells; [8]): high percentage of cells with increased caspase-3 activity | percentage of annexin V-positive and propidium iodide-positive cells (U937 cells; [9]): no effect alone | percentage of cells in the sub-G1 fraction (U937 cells; [9]): no effect alone | percentage of cells with high caspase-3 activity (U937 cells; [9]): little or no effect | inhibition of resistance to ARA-C ([6]; 8 AML patients with high VLA-4 levels, on fibronectin, 0.5 or 1 μg/ml AS101): inhibited the resistance to ARA-C of high-VLA-4 cells on fibronectin in a dose-dependent manner | inhibition of resistance to ARA-C ([6]; Patient B, high VLA-4, on fibronectin): inhibited the resistance to ARA-C of high-VLA-4 cells on fibronectin in a dose-dependent manner | sensitization to ARA-C, combination of AS101 and DTNB vs either alone ([6]; high-VLA-4 cells on fibronectin): did not sensitize high-VLA-4 cells grown on fibronectin to a greater degree than did either AS101 or DTNB alone | effect on viability of cells exposed to ARA-C, alone or in combination ([6]; low VLA-4 leukemic cells, fibronectin-coated plates): no effect either alone or in combination

O=C1O[Te]23OC(=O)C(O2)C2O[Te]4(OC(=O)C(O4)C1O3)OC2=O [SAS, [TeO4(COCH)2]2]
directional migration of murine endothelial cells through the membrane (SVEC4-10 cells [1]): inhibited the directional migration | ECGS-induced scratch wound repair by cell migration (SVEC4-10 cells [2]): reduce ECGS-induced scratch wound repair | cell attachment to fibronectin (BV-2 cells): inhibited cell attachment to fibronectin
